Measurements as given in patent US11884682B2, “Compounds and their uses as MIF inhibitors” (NANJING IMMUNOPHAGE BIOTECH CO., LTD., priority 2020, dated 2024).

Key:
MIF = MIF (Homo sapiens (Human), UniProt P14174); test: MIF tautomerase assay using pHPP as substrate; format: biochemical; conditions: cell-free, pHPP substrate 1.5 mM, MIF 3 nM; mean pIC50 of multiple test results
Procedure: Tautomerase Assay Using pHPP as substrate
This assay measured MIF's tautomerase activity in a cell-free system and was based on the determination of initial rates of the MIF-catalyzed conversion of the ketonic into the enolic tautomer of pHPP. This was achieved by spectrophotometric quantification of the complex between borate and the product of the reaction (enolic pHPP). The substrate was prepared by conversion of the enolic pHPP into its ketonic form. To achieve this, 0.5 M pHPP in methanol was diluted 10-fold with 50 mM sodium acetate buffer at pH 6.0, and then the suspension was shaken for 24 h at room temperature in darkness, and finally stored at 4° C. for not more than 1 week, with 5 min sonication being recommended before use.
Assays were performed in small-volume clear-bottom black 96 or 384-well polystyrene plates (Greiner Bio-One). First, 2 μL of the enzyme solution containing 6 nM of MIF in DPBS, 0.025% w/v BSA, and 300 μM CHAPS was dispensed onto sample and negative control wells using Multidrop Combi with metallic tip cassettes (Thermo Fisher Scientific) previously treated with Sigmacote. Then, 2 μL of the same buffer without MIF was dispensed onto positive control wells. The reaction was started by addition of the following to all wells: 2 μL of substrate solution containing 3 mM ketonic pHPP in 200 mM boric acid, 25 mM sodium phosphate, 0.025% w/v BSA, and 300 μM CHAPS at pH 6.0. In order to remove bubbles, the plate was centrifuged in an Allegra 25R centrifuge (Beckman Coulter, Inc., Brea, CA) at 1000 rpm for 2 min at room temperature. Then, the plate was read in an EnVision. Final concentrations of enzyme and substrate were 3 nM and 1.5 mM, respectively. Initial rates were calculated for each well as the slope of the absorbance progress curve.
(§1) The data mentioned below represents a mean pIC50 value of multiple test results. It is understood that the data illustrated below may have reasonable variation depending on the specific conditions and procedures used by the person conducting the testing.

U251 cell = U251 cell proliferation assay (CCK-8); format: cell-based; conditions: Homo sapiens, U-251; U251 cells; read-out: U251 Profileration pIC50 (converted)
From the text: [The source words this procedure for another cell line and reports this cell line under the same test.] (§2) The assay measures the ability of a compound to inhibit cell proliferation using Cell Counting Kit-8 (CCK-8), which allows sensitive colorimetric assays for the determination of cell viability in cell proliferation and cytotoxicity assays. The highly water-soluble tetrazolium salt, WST-8, is reduced by dehydrogenase activities in cells to give a yellow-color formazan dye, which is soluble in the tissue culture media. The amount of the formazan dye, generated by the activities of dehydrogenases in cells, is directly proportional to the number of living cells.
(§3) The assay was performed based on the instruction of the manufacturer (Dojindo Molecular Technologies Inc., Rockville, MD, USA). To start the assay, BV2 cells were seeded at a density of […] into 96-well plates and treated with test compounds, which were used at a top final assay concentration of 33.3 μM, diluted in assay medium with 1:3 dilutions to produce 10 point concentration responses, for 48 h. After incubation, the CCK-8 solution (10 μl) was added to each well of the plate and the plates were incubated in incubator at 37° C. for 3 h. Absorbance was recorded three times independently using a microplate reader (Bio-Rad Laboratories, Richmond, CA, USA) at 450 nm.

BV2 cells = test: BV2 cell proliferation assay (CCK-8); format: cell-based; conditions: Mus musculus, BV-2, 48 h treatment, CCK-8, top concentration 33.3 μM, mean pIC50 of multiple test results, read-out: BV2 Profileration pIC50 (converted)
From the text: as §2, §3
as §1, with “Selected examples were tested in the BV2 cell proliferation. The” for “The”

Chain of MIF (P14174 2-115): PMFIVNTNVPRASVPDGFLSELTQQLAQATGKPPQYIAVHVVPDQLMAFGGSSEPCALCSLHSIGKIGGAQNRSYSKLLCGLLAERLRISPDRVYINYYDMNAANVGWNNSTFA

Compound | Tautomerase Inhibition pIC50 (MIF) | IC50 (U251 cell) | IC50 (BV2 cells)
O=C1c2ccc(Br)cc2CCN1Cc1nnc(-c2cccs2)o1 [Compound 73, 6-bromo-2-((5-(thiophen-2-yl)-1,3,4-oxadiazol-2-yl)methyl)-3,4-dihydroisoquinolin-1(2H)-one] | <5 | > 1000 µM | 23.4 µM
COc1cccc(OC)c1C(=O)NCc1nnc(-c2cccs2)o1 [Compound 46, 2,6-dimethoxy-N-((5-(thiophen-2-yl)-1,3,4-oxadiazol-2-yl)methyl)benzamide] | 3.70 | > 1000 µM | > 1000 µM
COc1cc(CN2CCOCC2)ccc1C(=O)NCc1nnc(-c2cccs2)o1 [Compound 86, 2-methoxy-4-(morpholinomethyl)-N-((5-(thiophen-2-yl)-1,3,4-oxadiazol-2-yl)methyl)benzamide] | 5.47 | > 1000 µM | > 1000 µM
COc1cc(CN2CCCCC2)ccc1C(=O)NCc1nnc(-c2cccs2)o1 [Compound 85, 2-methoxy-4-(piperidin-1-ylmethyl)-N-((5-(thiophen-2-yl)-1,3,4-oxadiazol-2-yl)methyl)benzamide] | 5.20 | > 1000 µM | > 1000 µM
O=C1c2ccc(N3CCOCC3)cc2CCN1Cc1nnc(-c2cccs2)o1 [Compound 74, 6-morpholino-2-((5-(thiophen-2-yl)-1,3,4-oxadiazol-2-yl)methyl)-3,4-dihydroisoquinolin-1(2H)-one] | <5 | > 1000 µM | 25.1 µM
COc1cc(N2CCN(C)CC2)ccc1C(=O)NCc1nnc(-c2cccs2)o1 [Compound 59, 2-methoxy-4-(4-methylpiperazin-1-yl)-N-((5-(thiophen-2-yl)-1,3,4-oxadiazol-2-yl)methyl)benzamide] | 5.90 | > 1000 µM | 40.7 µM
CNCCNc1ccc(C(=O)NCc2nnc(-c3cccs3)o2)c(OC)c1 [Compound 77, 2-methoxy-4-((2-(methylamino)ethyl)amino)-N-((5-(thiophen-2-yl)-1,3,4-oxadiazol-2-yl)methyl)benzamide] | 5.66 | > 1000 µM | > 1000 µM
COc1cc(N2CCOCC2)ccc1C(=O)N(C)Cc1nnc(-c2cccs2)o1 [Compound 52, 2-methoxy-N-methyl-4-morpholino-N-((5-(thiophen-2-yl)-1,3,4-oxadiazol-2-yl)methyl)benzamide] | 4.20 | > 1000 µM | 3.63 µM
COc1cc(N2CCOCC2)ccc1NC(=O)c1nnc(-c2cccs2)o1 [Compound 75, N-(2-methoxy-4-morpholinophenyl)-5-(thiophen-2-yl)-1,3,4-oxadiazole-2-carboxamide] | <5 | > 1000 µM | 28.2 µM
O=C1c2ccccc2CCN1Cc1nnc(-c2cccs2)o1 [Compound 72, 2-((5-(thiophen-2-yl)-1,3,4-oxadiazol-2-yl)methyl)-3,4-dihydroisoquinolin-1(2H)-one] | <5 | > 1000 µM | 123 µM
